How the values were obtained:
[1] = Liquid; for viscosity / mass density: 101.33 kPa; for viscosity: Concentric cylinders viscometry; for mass density: Vibrating tube method
[2] = xn = mol fraction of the nth substance listed; settings: 293.15 K, 101 kPa, Liquid; for viscosity: Concentric cylinders viscometry
[3] = excess molar enthalpy (molar enthalpy of mixing); xn = mol fraction of the nth substance listed; settings: 303 K, 101 kPa, Liquid, Calvet calorimetry

COC(C)(C)C [2-methoxy-2-methylpropane]
[1]
Settings	mass density [kg/m3]	vapor or sublimation pressure [kPa]	viscosity [mPa·s]
273.15 K	760.4	–	0.39
283.15 K	750.1	–	0.36
286.5 K	–	20	–
291.3 K	–	25	–
293.15 K	739.9	–	0.333
295.5 K	–	30	–
298.15 K	734.4	–	0.319
299.2 K	–	35	–
302.5 K	–	40	–
303.15 K	729.2	41	0.304
305.45 K	–	45	–
308.2 K	–	50	–
310.8 K	–	55	–
313.1 K	–	60	–
313.15 K	718.5	–	0.278
315.3 K	–	65	–
317.4 K	–	70	–
319.3 K	–	75	–
321.1 K	–	80	–
322.9 K	–	85	–
324.5 K	–	90	–
325.4 K	–	92.5	–
326.2 K	–	95	–
326.9 K	–	97.2	–

COC(C)(C)C [2-methoxy-2-methylpropane] + ClC(Cl)Cl
x2 = 0
Settings	excess molar enthalpy [kJ/mol]	mass density [kg/m3]	viscosity [mPa·s]
[2]	–	739.9	0.333
[3]	0	–	–

ClC(Cl)Cl [trichloromethane]
[1]
Settings	mass density [kg/m3]	vapor or sublimation pressure [kPa]	viscosity [mPa·s]
273.15 K	1526	–	0.713
283.15 K	1507.1	–	0.651
293.15 K	1488.4	–	0.6
298.15 K	1478.8	–	0.576
303.15 K	1469.2	32.2	0.552
313.15 K	1450	–	0.509
318.15 K	1440	–	0.491

ClC(Cl)Cl [trichloromethane] + COC(C)(C)C
Settings	excess molar enthalpy [kJ/mol]	mass density [kg/m3]	viscosity [mPa·s]
[2], x1 = 0.0527	–	768.1	0.358
[2], x1 = 0.0834	–	785.4	0.372
[2], x1 = 0.1841	–	842.6	0.423
[2], x1 = 0.2714	–	895.6	0.47
[2], x1 = 0.358	–	951.5	0.514
[2], x1 = 0.4511	–	1015	0.56
[2], x1 = 0.546	–	1083.8	0.595
[2], x1 = 0.6303	–	1148.9	0.612
[2], x1 = 0.724	–	1225.9	0.62
[2], x1 = 0.8108	–	1302.9	0.618
[2], x1 = 0.8948	–	1381.1	0.613
[2], x1 = 0.9515	–	1437.9	0.609
[2], x1 = 1	–	1488.4	0.6
[3], x1 = 0.038	-0.342	–	–
[3], x1 = 0.068	-0.664	–	–
[3], x1 = 0.097	-0.92	–	–
[3], x1 = 0.101	-1.02	–	–
[3], x1 = 0.118	-1.1	–	–
[3], x1 = 0.154	-1.2	–	–
[3], x1 = 0.172	-1.3	–	–
[3], x1 = 0.219	-1.6	–	–
[3], x1 = 0.251	-1.9	–	–
[3], x1 = 0.39	-2.1	–	–
[3], x1 = 0.516	-2.1	–	–
[3], x1 = 0.669	-1.8	–	–
[3], x1 = 0.78	-1.5	–	–
[3], x1 = 0.864	-0.8	–	–
[3], x1 = 0.899	-0.65	–	–
[3], x1 = 0.931	-0.48	–	–
[3], x1 = 0.958	-0.28	–	–
[3], x1 = 0.986	-0.15	–	–
[3], x1 = 1	0	–	–
